Assay results as given in patent US11654193B2, “Cancer treatment combinations” (The Regents of the University of California, priority 2016, dated 2023).
Entries after “also recorded” stand apart in the source; their conditions may differ. Read-outs that look alike come from different tables or passages of the source.

Key:
[1] = tested on: natural killer cells, macrophages or neutrophils; details: cited from earlier work; for cell-mediated mechanisms induced by anti-CD20 antibodies rituximab, ofatumumab or obinutuzumab: purified systems or whole blood assays
[2] = tested on: ROR-1×TCL1 leukemia cells; experiment: ROR-1×TCL1 leukemia adoptive transfer in immunodeficient Rag2-/-γc-/- mice; type: in vivo; details: day 25; for numbers of splenic ROR-1×TCL1 leukemia cells, dose dependence: ibrutinib daily 15, 5, 1.67 mg/kg or single dose UC-961/cirmtuzumab 10, 3, 1 mg/kg
Protocol: ROR-1×TCL1 leukemia adoptive transfer study. […] ROR-1×TCL1 leukemia B cells (CD5B220^lowROR-1^+) were isolated from the spleen, enriched via density gradient centrifugation, suspended in sterile PBS, injected i.v. into Rag2^−/−γc^−/− recipient mice at 2×10^4 cells per animal. Samples used for transplantation were verified by flow cytometry to be >95% leukemia B cells. For dose dependent therapy of UC-961, recipient mice received either no treatment, or one dose i.v. injections of 10 mg/kg, 3 mg/kg and 1 mg/kg of UC-961 on day 1. […] All mice were sacrificed on day 25 and single-cell suspensions of splenocytes were purged of red blood cells by hypotonic lysis in ammonium-chloride-potassium (ACK) lysis solution, washed, suspended in 2% (wt/vol) BSA (Sigma) in PBS (pH=7.4) and stained for surface expression of CD3 (17A2), CD5 (53-7.3), B220 (RA3-6B2), and ROR-1 (4A5) using optimized concentrations of fluorochrome-conjugated mAbs. Cells were examined by four-color, multiparameter flow cytometry using a dual-laser FACSCalibur (BD) and the data were analyzed using FlowJo software (TreeStar). The total number of leukemia cells per spleen was calculated by determining the percent of CD5B220^lowROR-1^+ cells of total lymphocytes by flow cytometry and multiplying this number by the total spleen cell count.
(§1) ROR-1×TCL1 Leukemia Adoptive Transfer Study.

[3] = tested on: ROR-1×TCL1 leukemia cells; experiment: ROR-1×TCL1 leukemia adoptive transfer in immunocompetent ROR-1-Tg mice; type: in vivo; details: cirmtuzumab 10 mg/kg weekly i.v. and/or ibrutinib 5 mg/kg daily via gavage, after 28 days
Source text: as §1
After 28 days, the animals were sacrificed and the spleen of each animal was examined.

[4] = tested on: cell lines or chronic lymphocytic leukemia samples; details: cited from earlier work
[5] = single dose UC-961/cirmtuzumab 1 mg/kg and/or ibrutinib 5 mg/kg daily

Row | Compound | effect on immune cell-mediated mechanisms induced by anti-CD20 antibodies ([1]; 10 μM, compared with ibrutinib at the same concentration) | cell-mediated mechanisms induced by anti-CD20 antibodies rituximab, ofatumumab or obinutuzumab [1] | numbers of splenic ROR-1×TCL1 leukemia cells, dose dependence [2] | numbers of splenic ROR-1×TCL1 leukemia cells, dose dependence ([2]; listed as Ibrutinib) | percentage and total number of ROR-1×TCL1 leukemia cells per spleen [2, 5] | spleen size [2, 5] | mean proportion and leukemia cell number in the spleen [3] | spleen size [3] | cell-mediated mechanisms induced by anti-CD20 antibodies rituximab, ofatumumab or obinutuzumab ([1]; listed as Ibrutinib) | complement activation or complement-mediated lysis ([4]; pre-treatment with ibrutinib) | direct cell death mediated by anti-CD20 antibodies ([4]; pretreatment with ibrutinib for 1 hour)
1 | CC[C@H](Nc1ncnc2[nH]cnc12)c1nc2cccc(F)c2c(=O)n1-c1ccccc1 [idelalisib, 5-Fluoro-3-phenyl-2-[(15)-1-(7H-purin-6-ylamino)propyl]-4(3H)-quinazolinone] | weaker than those observed with ibrutinib | similarly inhibits the immune cell-mediated mechanisms |  |  |  |  |  |  |  |  | 
2 | C=CC(=O)N1CCC[C@@H](n2nc(-c3ccc(Oc4ccccc4)cc3)c3c(N)ncnc32)C1 [ibrutinib, 1-[(3R)-3-[4-Amino-3-(4-phenoxyphenyl)-1H-pyrazolo[3,4-d]pyrimidin-1-yl]piperidin-1-yl]prop-2-en-1-one] |  | strongly inhibited all cell-mediated mechanisms | Dose-dependent inhibitory effect | inhibited the expansion of ROR-1×TCL1 leukemia cells in a dose-dependent manner; also recorded: reduced the numbers of splenic leukemia cells in a dose-dependent manner | significantly lower | significantly smaller spleens | significantly lower | significantly smaller spleens | interfered with the activity of the CD20 antibodies | did not inhibit complement activation or complement-mediated lysis | did not increase direct cell death
